The values below come from ChEMBL document CHEMBL5579878, “Allosteric Activation of Protein Phosphatase 5 with Small Molecules” (J Med Chem, 2024).

Substitutions are numbered along the chain they refer to. pKd: −log10 of the molar value. Calls of active or inactive are those of the source. No cut-off for these calls is given here.

Series [1] relates to HCT-116. The experiment in a line: Enhancement of HSP90 inhibitor AT13387-induced antiproliferative activity against human HCT-116 cells assessed as fold change in HSP90 inhibitor AT13387 IC50 at 50 uM incubated for 72 hrs by CCK8 assay. The class given is functional. (Formazan colour is commonly taken as a measure of viable cells.)
Series [2] can be described thus: Toxicity in BALB/c nude mouse xenografted with human HCT-116 cells assessed as body weight loss at 30 to 60 mg/kg, ip administered every other day for 14 days in presence of AT13387. Particulars: in vivo, 336 h, dose 30-60 mg/kg, time 14 day. The class given is organism-based. In general terms: Xenograft models place foreign cells or tissue in a host animal.
Series [3] has as its system T1, Serine/threonine-protein phosphatase 5 (Homo sapiens), P53041 [E428A].
T1 sequence (whole entry): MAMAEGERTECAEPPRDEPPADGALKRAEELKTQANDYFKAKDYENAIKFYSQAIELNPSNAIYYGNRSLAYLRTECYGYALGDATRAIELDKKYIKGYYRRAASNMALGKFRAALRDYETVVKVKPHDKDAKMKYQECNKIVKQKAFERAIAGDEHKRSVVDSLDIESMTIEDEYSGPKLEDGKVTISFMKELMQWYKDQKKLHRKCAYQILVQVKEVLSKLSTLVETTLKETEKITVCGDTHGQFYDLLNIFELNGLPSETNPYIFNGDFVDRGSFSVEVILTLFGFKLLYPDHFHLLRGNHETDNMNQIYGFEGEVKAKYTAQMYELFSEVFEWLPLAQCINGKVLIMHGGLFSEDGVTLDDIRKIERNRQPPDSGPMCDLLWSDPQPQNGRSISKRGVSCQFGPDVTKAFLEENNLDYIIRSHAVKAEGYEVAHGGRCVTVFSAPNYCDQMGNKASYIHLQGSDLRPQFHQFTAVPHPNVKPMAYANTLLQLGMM
In words: Binding affinity to PP5 E428A mutant (unknown origin) by ITC analysis. For orientation: Isothermal titration calorimetry measures the heat released or taken up as one component is titrated into another.

Series [4] relates to HCT-116. The experiment in a line: Downregulation of AT13387-induced HSP40 expression in PP5 Knockout human HCT-116 cells at 50 uM incubated for 24 hrs by Western blot analysis. The class given is functional, cell-based.
Series [5] deals with T2, Serine/threonine-protein phosphatase 5 (Homo sapiens, UniProt P53041).
T2 sequence (P53041 whole entry): T1 sequence (whole entry) with A428E
In words: Binding affinity to full length His-tagged human PP5 extracted from Escherichia coli BL21 assessed as dissociation constant by ITC analysis.

Series [6] relates to HCT-116. The experiment in a line: Downregulation of AT13387-induced HSP27 mRNA expression in human HCT-116 cells at 50 uM incubated for 24 hrs by qRT-PCR analysis. The class given is functional, cell-based.
In series [7] the test system is HCT-116. The experiment in a line: Antitumor activity against human HCT-116 cells xenografted in BALB/c nude mouse assessed as decrease in AT13387-induced HSP40 protein expression in tumor at 30 to 60 mg/kg, ip administered every other day for 14 days by Western blot analysis. The class given is functional, organism-based. The settings on record: dose 30-60 mg/kg, time 14.0 day.

The test system of series [8] is HCT-116. In words: Antitumor activity against human HCT-116 cells xenografted in BALB/c nude mouse at 60 mg/kg, ip administered every other day for 14 days. The format is functional, organism-based. The settings on record: time 14.0 day.
Series [9] concerns HCT-116. In words: Antitumor activity against human HCT-116 cells xenografted in BALB/c nude mouse assessed as decrease in AT13387-induced HSP70 protein expression in tumor at 30 to 60 mg/kg, ip administered every other day for 14 days by Western blot analysis. The settings on record: dose 30-60 mg/kg, time 14.0 day. The format is functional, organism-based.
In series [10] the test system is HCT-116. In words: Effect on HSP27 expression level in human HCT-116 cells at 1 to 100 uM incubated for 24 hrs by Western blot analysis. The class given is functional, cell-based. The settings on record: dose 1-100 µM.
In series [11] the target is Serine/threonine-protein phosphatase 5 (Homo sapiens, UniProt P53041, K430A). In words: Binding affinity to PP5 K430A mutant (unknown origin) assessed as dissociation constant by ITC analysis.
Serine/threonine-protein phosphatase 5 (Homo sapiens, UniProt P53041, K430A), sequence (P53041 2-499 K430A limits assumed): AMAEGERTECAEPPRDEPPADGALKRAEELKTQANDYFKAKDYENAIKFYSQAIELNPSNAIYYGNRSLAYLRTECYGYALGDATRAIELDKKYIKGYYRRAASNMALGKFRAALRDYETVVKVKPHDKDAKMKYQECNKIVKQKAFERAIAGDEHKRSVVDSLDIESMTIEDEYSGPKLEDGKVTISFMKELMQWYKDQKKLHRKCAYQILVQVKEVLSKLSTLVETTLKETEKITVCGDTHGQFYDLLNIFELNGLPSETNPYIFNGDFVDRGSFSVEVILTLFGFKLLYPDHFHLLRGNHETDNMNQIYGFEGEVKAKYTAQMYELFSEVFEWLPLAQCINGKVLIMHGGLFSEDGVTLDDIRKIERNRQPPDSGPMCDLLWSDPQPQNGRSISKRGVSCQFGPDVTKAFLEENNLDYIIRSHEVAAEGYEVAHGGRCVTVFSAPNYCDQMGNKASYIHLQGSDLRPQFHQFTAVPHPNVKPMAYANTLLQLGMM
Series [12] addresses Serine/threonine-protein phosphatase PP1-alpha catalytic subunit (Homo sapiens) (UniProt P62136). In words: Inhibition of PP1A (unknown origin) using DiFMUP as substrate at 0.01 to 1000 uM. The settings on record: dose 0.01-1000 µM.

Serine/threonine-protein phosphatase PP1-alpha catalytic subunit (Homo sapiens), sequence (P62136 whole entry): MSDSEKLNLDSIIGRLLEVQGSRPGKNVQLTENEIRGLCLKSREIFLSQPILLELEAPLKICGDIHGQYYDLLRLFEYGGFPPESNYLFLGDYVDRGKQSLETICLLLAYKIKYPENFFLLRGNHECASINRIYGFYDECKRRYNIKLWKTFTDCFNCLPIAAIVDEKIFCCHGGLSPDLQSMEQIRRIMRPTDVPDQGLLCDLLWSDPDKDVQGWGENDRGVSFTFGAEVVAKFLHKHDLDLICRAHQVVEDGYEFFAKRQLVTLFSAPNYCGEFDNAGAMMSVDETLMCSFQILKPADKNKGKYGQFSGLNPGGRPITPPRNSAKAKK

As to `N=c1oc2cc(F)cc(F)c2cc1C(N)=S`, the “fold change (FC)” value in the series with HCT-116 [1] came to 2. Further, the Activity entry in series [2] was “Non-Toxic”. In addition, the result (in series [3]; in the series with HCT-116 [4]; in the series on HCT-116 [8]; in the series with HCT-116 [10]) was inactive. Also, the pKd in series [5] was 5.94; in series [11], 4.43. Further, the result in the series with HCT-116 [6], in the series with HCT-116 [7] and in the series on HCT-116 [9] was Active. For the same compound, the inhibition result in [12] was “inactive”.

The term pKd denotes the negative decadic logarithm of the Kd, by convention in mol/L.
